Data set [1] can be described thus: Lipophilicity, logD of compound. The data set is classed as physicochemical. The note with it: octanol/water.
Data set [2] in a line: Apparent permeability of the compound from apical to basolateral side in human Caco-2 cells incubated for 2 hrs by LC-MS/MS analysis. The format is ADME, cell-based. The note with it: for Papp A→B at 2 h: Caco-2. In general terms: Caco-2 monolayers are a common model of the intestinal barrier.
Data set [3] can be described thus: Efflux ratio of permeability in human Caco-2 cells from basolateral to apical side over apical to basolateral side in human Caco-2 cells incubated for 2 hrs by LC-MS/MS analysis. The format is ADME, cell-based. The settings on record: caco-2, 2 h.
A short description of data set [4]: Thermodynamic aqueous solubility at pH 2 measured at 72 hrs by UPLC analysis. The format is physicochemical. The settings on record: aqueous solution, read-out: Therm_solubility.
Data set [5] is described as follows: Thermodynamic aqueous solubility at pH 7 measured at 24 hrs by UPLC analysis. The data set is classed as physicochemical. The note with it: aqueous solution, read-out: Therm_solubility.
Data set [6] can be described thus: Aqueous stability of the compound assessed as compound remaining at pH 2 measured at 24 hrs by UPLC analysis. The format is physicochemical. The settings on record: aqueous solution, read-out: Stability.
The nature of data set [7]: Aqueous stability of the compound assessed as compound remaining at pH 7 measured at 24 hrs by UPLC analysis. The settings on record: aqueous solution, read-out: Stability. The format is physicochemical.
Data set [8] in a line: Stability of compound in rat gastrointestinal S9 fraction assessed as half life at pH 7.4 measured upto 120 mins by LC-MS/MS analysis. The format is ADME, subcellular, Gastrointestinal tract.
A short description of data set [9]: Stability of compound in dog gastrointestinal S9 fraction assessed as half life at pH 7.4 measured upto 120 mins by LC-MS/MS analysis. The format is ADME, subcellular, Canis lupus familiaris, Gastrointestinal tract.
Data set [10] can be described thus: Stability of compound in cynomolgus monkey gastrointestinal S9 fraction assessed as half life at pH 7.4 measured upto 120 mins by LC-MS/MS analysis. The format is ADME, subcellular, Macaca fascicularis, Gastrointestinal tract.
Data set [11] in a line: Stability of compound in human gastrointestinal S9 fraction assessed as half life at pH 7.4 measured upto 120 mins by LC-MS/MS analysis. The data set is classed as ADME, subcellular, Gastrointestinal tract.
A short description of data set [12]: Stability of compound in rat plasma assessed as half life measured upto 4 hrs by LC-MS/MS analysis. The format is ADME, cell-free.
Data set [13] in a line: Stability of compound in dog plasma assessed as half life measured upto 4 hrs by LC-MS/MS analysis. The data set is classed as ADME, cell-free, Canis lupus familiaris.
Data set [14] in a line: Stability of compound in cynomolgus monkey plasma assessed as half life measured upto 4 hrs by LC-MS/MS analysis. The format is ADME, cell-free, Macaca fascicularis.
Data set [15] can be described thus: Stability of compound in human plasma assessed as half life measured upto 4 hrs by LC-MS/MS analysis. The format is ADME, cell-free.
Data set [16] can be described thus: Stability of compound in rat liver S9 fraction assessed as half life at pH 7.4 measured upto 90 mins by LC-MS/MS analysis. The format is ADME, subcellular.
Data set [17] in a line: Stability of compound in dog liver S9 fraction assessed as half life at pH 7.4 measured upto 90 mins by LC-MS/MS analysis. The data set is classed as ADME, subcellular, Canis lupus familiaris.
The nature of data set [18]: Stability of compound in cynomolgus monkey liver S9 fraction assessed as half life at pH 7.4 measured upto 90 mins by LC-MS/MS analysis. The data set is classed as ADME, subcellular, Macaca fascicularis.
The nature of data set [19]: Stability of compound in human liver S9 fraction assessed as half life at pH 7.4 measured upto 90 mins by LC-MS/MS analysis. The data set is classed as ADME, subcellular.
Data set [20] in a line: Cmax in ferret infected with SARS-CoV-2 assessed as prodrug conversion by measuring (2R,3R,4S,5R)-2-(4-aminopyrrolo[2,1-f][1,2,4]triazin-7-yl)-3,4-dihydroxy-5-(hydroxymethyl)tetrahydrofuran-2-carbonitrile at 10 mg/kg, po BID measured after 4 days by LC-MS/MS analysis. The data set is classed as ADME, organism-based, Mustela putorius furo. More on the design: time 4 day, dose 10 mg/kg, route po. The note with it: in vivo, 96 h.

Data set [21] in a line: AUC(0 to 24 hrs) in ferret infected with SARS-CoV-2 assessed as prodrug conversion by measuring (2R,3R,4S,5R)-2-(4-aminopyrrolo[2,1-f][1,2,4]triazin-7-yl)-3,4-dihydroxy-5-(hydroxymethyl)tetrahydrofuran-2-carbonitrile at 10 mg/kg, po BID measured after 4 days by LC-MS/MS analysis. The data set is classed as ADME, organism-based, Mustela putorius furo. More on the design: dose 10 mg/kg, time 4 day, route po. The settings on record: in vivo, 96 h.

A short description of data set [22]: Prodrug conversion in SARS-CoV-2 infected in ferret assessed as (2R,3R,4S,5R)-2-(4-aminopyrrolo[2,1-f][1,2,4]triazin-7-yl)-3,4-dihydroxy-5-(hydroxymethyl)tetrahydrofuran-2-carbonitrile mediated log10 reduction of genomic RNA at 10 mg/kg, po BID measured after 4 days by RT-qPCR analysis. The format is ADME, organism-based, Mustela putorius furo. The note with it: in vivo, 96 h, time 4 day. (Quantitative PCR measures a nucleic acid by following its amplification.)

Data set [23] is described as follows: Cmax in mouse infected with SARS-CoV-2 assessed as prodrug conversion by measuring (2R,3R,4S,5R)-2-(4-aminopyrrolo[2,1-f][1,2,4]triazin-7-yl)-3,4-dihydroxy-5-(hydroxymethyl)tetrahydrofuran-2-carbonitrile at 30 mg/kg, po BID measured after 4 days by LC-MS/MS analysis. The data set is classed as ADME, organism-based. Further details: dose 30 mg/kg, time 4 day, route po. The settings on record: in vivo, 96 h.

A short description of data set [24]: AUC(0 to 24 hrs) in SARS-CoV-2 infected mouse assessed as prodrug conversion (2R,3R,4S,5R)-2-(4-aminopyrrolo[2,1-f][1,2,4]triazin-7-yl)-3,4-dihydroxy-5-(hydroxymethyl)tetrahydrofuran-2-carbonitrile at 30 mg/kg, po BID measured after 4 days by LC-MS/MS analysis. The settings on record: in vivo, 96 h. Further details: dose 30 mg/kg, time 4 day, route po. The format is ADME, organism-based.

Data set [25] can be described thus: Prodrug conversion in SARS-CoV-2 infected in mouse assessed as (2R,3R,4S,5R)-2-(4-aminopyrrolo[2,1-f][1,2,4]triazin-7-yl)-3,4-dihydroxy-5-(hydroxymethyl)tetrahydrofuran-2-carbonitrile mediated log10 reduction of genomic RNA in lung at 30 mg/kg, po BID measured after 4 days by RT-qPCR analysis. The format is ADME, organism-based. The note with it: in vivo, 96 h, time 4 day.

The nature of data set [26]: Lipophilicity, logP of compound. The format is physicochemical. The note with it: octanol/water.
In another data set the test system is MT4. Put plainly: Cytotoxicity against human MT4 cells assessed as reduction in cell growth measured after 5 days by CellTiter-Glo assay. The note with it: mt4, 120 h, time 5 day. The data set is classed as toxicity, cell-based.
The next data set deals with PC-3. Put plainly: Cytotoxicity against human PC-3 cells assessed as reduction in cell growth measured after 5 days by CellTiter-Glo assay. The data set is classed as toxicity, cell-based. The note with it: pc-3, 120 h, time 5 day.
A further data set concerns HepG2. In words: Cytotoxicity against human HepG2 cells assessed as reduction in cell growth measured after 5 days by CellTiter-Glo assay. The format is toxicity, cell-based. The note with it: hepg2, 120 h, time 5 day. On the technique in general: Cellular ATP, detected with luciferase, serves as a proxy for viable cell number.
Another data set concerns Huh-7. In words: Cytotoxicity against human Huh-7 cells assessed as reduction in cell growth measured after 5 days by CellTiter-Glo assay. The note with it: huh-7, 120 h, time 5 day. The format is toxicity, cell-based.
The next data set concerns MRC5. In words: Cytotoxicity against human MRC5 cells assessed as reduction in cell growth measured after 5 days by CellTiter-Glo assay. The data set is classed as toxicity, cell-based. The note with it: mrc5, 120 h, time 5 day.
Data set [27] is described as follows: Cytotoxicity against human NHBE-T cells assessed as reduction in cell growth measured after 5 days by CellTiter-Glo assay. The settings on record: nhbe-t, 120 h, time 5 day. The data set is classed as toxicity, cell-based.
The subject of data set [28] is PBMC. Put plainly: Cytotoxicity against quiescent human PBMC cells assessed as reduction in cell growth measured after 5 days by CellTiter-Glo assay. The data set is classed as toxicity, cell-based. The settings on record: pbmc, 120 h, time 5 day.
In data set [29] the test system is PBMC. In words: Cytotoxicity against stimulated human PBMC cells assessed as reduction in cell growth measured after 5 days by CellTiter-Glo assay. The data set is classed as toxicity, cell-based. The settings on record: pbmc, 120 h, time 5 day.
The test system of a further data set is Hepatocyte. In words: Cytotoxicity against human primary hepatocytes assessed as reduction in cell growth measured after 5 days by CellTiter-Glo assay. The data set is classed as toxicity, cell-based. The settings on record: hepatocytes, 120 h, time 5 day.

Values after ≈ are worked out from the molar mass of the structure shown. A value given as a limit tells only on which side of the number the result lay.

Data on five molecules can be found in ChEMBL document CHEMBL5321279 (J Med Chem, 2023).

Broadly, the logD is lipophilicity at a set pH, counting ionised and neutral species. A word on the half-life: it is the time in which the quantity being followed falls by half. What is called Cmax is the maximum level reached in the sampled fluid or tissue. The AUC is concentration integrated over time. Take `CC(C)C(=O)OC[C@H]1O[C@@](C#N)(c2ccc3c(N)ncnn23)[C@H](OC(=O)C(C)C)[C@@H]1OC(=O)C(C)C`: the logD in data set [1] is 3.5. Moreover, the Papp in data set [2] (caco-2, 2 h) was 22 10^-6 cm/s. Besides, in data set [3], the Ratio is less than 1. The solubility thermodynamic at 72 h in data set [4] came out at 600 µg/mL (≈ 1.2 mM). Besides, in data set [5], the solubility thermodynamic at 24 h was less than 10 µg/mL. For the same molecule, the remaining at 24 h in data set [6] is no less than 96%; in [7], no less than 98%. In addition, the half-life was greater than 2 min in data set [8]; less than 2 min in [9]; less than 2 min in data set [10]; less than 2 min in data set [11]; less than 2 min in [12]; 182 min in [13]. Also, the half-life came to 7.2 min in [14] and 5.5 min in data set [15]. Further, the half-life at […] in [16] is 2.9 min; in data set [17] it was less than 2 min; in [18], less than 2 min; in [19] it was less than 2 min. In addition, the Cmax was found to be 5 µM in data set [20] and 13 µM in data set [23]. The area under the curve (AUC) in data set [21] came to 54 µM·h; in data set [24], 95 µM·h. For the same molecule, the “log(activity)” value in data set [22] is listed as -1.98; in data set [25], -3.29.

As a reminder, the Papp A→B is how fast a substance crosses the layer from the apical side. Turning to `CC(=O)OC[C@H]1O[C@@](C#N)(c2ccc3c(N)ncnn23)[C@H](OC(C)=O)[C@@H]1OC(C)=O`, the log distribution coefficient (logD) in data set [1] was 1.5. Moreover, the Papp A→B at 2 h in data set [2] turned out to be 4 ×10⁻⁶ cm/s. In addition, in data set [3], the Ratio was 3. Besides, the solubility thermodynamic at 72 h in [4] is no less than 40000 µg/mL. Besides, the solubility thermodynamic at 24 h in data set [5] amounted to 1400 µg/mL (≈ 3.35 mM). For the same molecule, the results for the remaining at 24 h in [6] and in [7] were 82% and 79%, respectively. The half-life in [8] was greater than 2 min; in [9], 16 min; in data set [10] it was less than 2 min; in data set [11], less than 2 min; in data set [12] it was less than 2 min; in [13] it was 111 min. For the same molecule, the figures for the half-life in data set [14] and in data set [15] were 9.2 min and 4.7 min, respectively. Besides, the half-life at […] in [16], in [17], in data set [18] and in data set [19] was less than 2 min each time.

Take `CC(=O)OC[C@H]1O[C@@](C#N)(c2ccc3c(N)ncnn23)[C@H](O)[C@@H]1O`: the log distribution coefficient (logD) in data set [1] is on record as less than 0.3. Besides, the Papp A→B at 2 h in data set [2] came out at 1.4 ×10⁻⁶ cm/s. Further, in [3], the Ratio is on record as 0.5. Also, the solubility thermodynamic at 24 h in [5] is 1000 µg/mL (≈ 3 mM). Besides, the values for the remaining at 24 h in data set [6] and in data set [7] were 89% and 96%, respectively. Also, the half-life is greater than 2 min in [8]; 226 min in data set [9]; 38 min in [10]; 28 min in [11]; 3 min in data set [12]; 564 min in data set [13]. Further, the half-life in data set [14] stood at 146 min; in [15], 70 min. For the same molecule, the half-life at […] in [16] was 10 min; in data set [17] it was 25 min; in [18], 5.3 min; in data set [19] it was 19 min.

For orientation: logP means the decadic logarithm of the partition coefficient of the neutral form, usually between octanol and water. In data set [26], `[N-]=[N+]=N[C@]1(CO)O[C@@H](n2ccc(N)nc2=O)[C@H](O)[C@@H]1O` [4'-AZIDOCYTIDINE] registered a log partition coefficient (logP) greater than 2.

By CC50 is commonly meant the concentration giving 50% cytotoxicity. Turning to `COc1ccc(C[C@H](N)C(=O)N[C@H]2[C@@H](O)[C@H](n3cnc4c(N(C)C)ncnc43)O[C@@H]2CO)cc1` [PUROMYCIN], the CC50 in the data set with MT4 came to 120 nM; with PC-3, 470 nM; in the data set on HepG2, 780 nM; in the data set with Huh-7, 430 nM; in the data set on MRC5, 320 nM; in data set [27], 600 nM. Besides, the results for the CC50 with PBMC [28], in the data set with PBMC [29] and in the data set on Hepatocyte were 5.05 µM, 1100 nM and 1100 nM, respectively.
